Molecules are shown by their SMILES.

The nature of data set [1]: Single dose pharmacokinetic study after peroral ciclopirox olamine. It is filed as in vivo, BALB/c mice. The following applies: 100 mg/kg oral gavage. The procedure:
Single dose pharmacokinetic study after peroral treatment with ciclopirox Olamine. Six week old BALB/c mice were treated with 100 mg/kg ciclopirox olamine by oral gavage. This is well below the oral toxicity level in mice of 1740 mg/kg (Spectrum Chemicals MSDS). At 15 min, 30 min, 1 h, 3 h and 5 h post-treatment, blood was collected from pairs of mice and the serum separated. Mice were then euthanized and trigeminal ganglia (TG), brainstems and corneas were dissected and frozen until tissue extraction was performed and the extracts analyzed by mass spectroscopy. Standardization to ciclopirox olamine was achieved using compound spiked into a matrix of relevant tissue homogenate from untreated mice.
Ciclopirox olamine tissue concentrations (μM) after oral gavage. Ciclopirox olamine has previously been used to treat mice by oral gavage (25 to 40 mg/kg) for up to 60 days, but, assessment of penetration into the cornea and nervous system after oral gavage needed to be evaluated as well as tissue concentration over time to estimate appropriate dosing. In a single dose pharmacokinetic study, mice were treated with 100 mg/kg ciclopirox olamine by oral gavage. Pairs of mice were euthanized at various times post-treatment. Ciclopirox olamine concentrations in plasma, corneas, trigeminal ganglia and brainstems were determined by mass spectroscopy (FIG. 10). […] Ciclopirox olamine concentrations in cornea and nervous system tissues were only ˜5-fold lower than that in the plasma and remained above the estimated EC90 until 5 hours post-treatment.

A further data set concerns HSV-1. Nature of the data set: Topical treatment of mice infected with HSV-1 on the cornea. It is filed as in vivo. The following applies: summary statement. The procedure: Compounds were administered at 1 μg/eye in 10% DMSO. Two mice were treated with 10% DMSO as a negative control. The corneal surface was swabbed once per day on days 1, 2, 4 and 5 post-infection and titer of virus shed from the epithelium was determined by standard plaque assay. On the fifth day post-infection mice were euthanized and the trigeminal ganglia (TG) and brainstems were dissected. The tissues were disrupted and virus in them quantified by plaque assay. […] Weight of individual mice was recorded daily. […] Saline was a negative control. On the fifth day post-infection mice were euthanized and the trigeminal ganglia (TG) and brainstems were dissected. The tissues were disrupted and virus in them quantified by plaque assay.
Body weight was monitored daily post-infection as a sensitive indicator of overall health (FIG. 12).
Infected mice treated with saline served as a negative control.

For data set [2] the following is noted: mouse, in vivo; cited from earlier work.

With `Cc1cc(C2CCCCC2)n(O)c(=O)c1` [Compound 41-E, Ciclopirox ethanolamine], in data set [1], the “Concentrations in cornea and nervous system tissues, fold lower than plasma” value is reported as ~5 fold; the “Plasma concentration at time of uptake” value was ~30 µM. Also, the “Free plasma concentration after 5 hours, fold above the estimated EC90 against HSV-1” value in data set [1] (5 hours) is given as 10 fold. The “Overall health of mice as shown by maintenance of body weight” value in the data set with HSV-1 is “significantly improved the overall health”. In addition, the “Oral toxicity level in mice” value in data set [2] is on record as 1740 mg/kg.

These data come from patent US10463664B2, “Inhibitors of HSV nucleotidyl transferases and uses therefor” (Saint Louis University, priority 2013, dated 2019).
